Drawing on ChEMBL document CHEMBL1151365, “The isolation and identification of several trichothecene mycotoxins from Fusarium heterosporum” (J Nat Prod, 1981), this text covers ED50, Activity and inhibition for six compounds.

Holding throughout (assay type): organism-based
The species named for one data set is Oryctolagus cuniculus. The data set is described as follows: Dermal toxicity in rabbit skin. The settings on record: in vivo.
Data set [1] has as its system Triticum aestivum. In words: Toxicity in Triticum aestivum assessed as inhibition of coleoptiles growth at 0.01 mM. The settings on record: in vivo, 10 µM.
Data set [2] has as its system Triticum aestivum. In words: (§1) Toxicity in Triticum aestivum assessed as inhibition of coleoptiles growth at 1 mM. The settings on record: in vivo, 1000 µM.
The test system of data set [3] is Triticum aestivum. The data set is described as follows: Toxicity in Triticum aestivum assessed as inhibition of coleoptiles growth at 0.1 mM. The settings on record: in vivo, 100 µM.
Data set [4] is described as follows: as §1. The settings on record: Triticum aestivum coleoptiles, read-out: Activity.

For `CC1=C[C@H]2O[C@@H]3[C@H](O)[C@@H](O)[C@](C)([C@@]2(CO)C[C@@H]1O)[C@]31CO1`, the ED50 in the data set listed under Oryctolagus cuniculus is greater than 1.28 µg.

Regarding `CC(=O)OC[C@]12C[C@H](OC(=O)CC(C)(C)O)C(C)=C[C@H]1O[C@@H]1[C@H](O)[C@@H](O)[C@@]2(C)[C@]12CO2`, the Activity result in the data set on Triticum aestivum [1], with Triticum aestivum [2] and with Triticum aestivum [3] was “Toxic” in each case. In addition, in the data set listed under Oryctolagus cuniculus, the ED50 was greater than 1.28 µg.

For `CC(=O)OC[C@]12C[C@H](O)C(C)=C[C@H]1O[C@@H]1[C@H](O)[C@@H](O)[C@@]2(C)[C@]12CO2`, the inhibition at 1000 µM in data set [4] came to 59%. In the data set listed under Oryctolagus cuniculus, this compound gave an ED50 greater than 1.28 µg.

Take `CC1=C[C@H]2O[C@@H]3[C@H](O)[C@@H](O)[C@](C)([C@@]2(CO)C[C@@H]1OC(=O)CC(C)(C)O)[C@]31CO1`: the Activity entry in the data set on Triticum aestivum [1], in the data set with Triticum aestivum [2] and in the data set on Triticum aestivum [3] was “Toxic” throughout. Also, the ED50 in the data set filed under Oryctolagus cuniculus is greater than 1.28 µg.

Turning to `CC(=O)OC[C@]12C[C@H](OC(=O)CC(C)C)C(C)=C[C@H]1O[C@@H]1[C@H](O)[C@@H](O)[C@@]2(C)[C@]12CO2` [HT-2 TOXIN], the Activity result with Triticum aestivum [1], in the data set on Triticum aestivum [2] and in the data set with Triticum aestivum [3] was “Toxic” in each case. The compound further came in with an ED50 in the data set listed under Oryctolagus cuniculus of 0.16 µg.

As for `CC(=O)OC[C@]12C[C@H](OC(=O)CC(C)C)C(C)=C[C@H]1O[C@@H]1[C@H](O)[C@@H](OC(C)=O)[C@@]2(C)[C@]12CO2` [T-2 TOXIN], the Activity entry in the data set on Triticum aestivum [1], in the data set on Triticum aestivum [2] and with Triticum aestivum [3] was “Toxic” in each case. In addition, the ED50 in the data set listed under Oryctolagus cuniculus was less than 0.16 µg.
